Values of other authors in patent publication US20250073301A1, “Delayed Release Compositions of Linaclotide” (Ironwood Pharmaceuticals, Inc., priority 2013, published 2025).
Ends that are not written are not given here.

Conditions: human volunteers, oral linaclotide

In the case of “CCEYCCNPACTGCY (cysteine pairing not given here) [linaclotide]”, the “oral dose found in feces” value is given as “about 5%”.
